{"source": "patent US20120035076A1", "about": "“IRAK KINASE FAMILY AS NOVEL TARGET AND BIOMARKER FOR ALZHEIMER” (Vereniging Voor Christelijk Hoger Onderwijs …, priority 2009, published 2012)", "key": {"[1]": {"system": "IL-6 secretion by U373 astrocytoma cells", "test": "IL-1β induced IL-6 secretion by U373 astrocytoma cells (ELISA)", "assay_type": "cell-based", "conditions": "IL-1β 10 U/ml, 6 hours, inhibitor 1250, 2500 or 5000 nM"}, "[2]": {"system": "IL-6 secretion by human primary astrocytes", "test": "IL-1β induced IL-6 secretion by human primary astrocytes (ELISA)", "assay_type": "cell-based", "conditions": "IL-1β 10 U/ml, 6 hours, inhibitor 1250, 2500 or 5000 nM", "description": "IL-1β has been implicated in both the initiation and propagation of neuroinflammatory changes seen in Alzheimer's disease patients. One of the main mechanisms of IL-1β is the induction of interleukin 6 (IL-6) secretion, which propagates the neuroinflammatory response in Alzheimer's disease patients. Using primary human adult astrocytes this inflammatory response as well as modulators (i.e. potential drugs for therapy) can be studied in vitro. […] In the presence of IL-1β (10 U/ml) these cells secrete IL-6 in the culture supernatant, which can be measured by ELISA. […] Cells were incubated with or without IL-1β (10 U/ml) for 6 hours in the presence of different concentration of IRAK1/4 inhibitor I (1250, 2500, or 5000 nM). IL-6 levels (pg/ml) in the culture supernatants were determined by ELISA. Shown are mean levels +/−S.D. of three replicate stimulations."}, "[3]": {"conditions": "FIG. 1, listed as IRAK1/4 inhibitor"}}}
{"smiles": "O=C(Nc1nc2ccccc2n1CCN1CCOCC1)c1cccc([N+](=O)[O-])c1", "note": "[IRAK1/4 inhibitor I]", "values": [{"measurement": "IL-6 secretion in culture supernatant", "setting": "[1]; FIG. 1", "value": "dose-dependently inhibits IL-6 secretion"}, {"measurement": "IL-6 secretion in culture supernatant", "setting": "[1]; [3]", "value": "reduced"}, {"measurement": "IL-6 secretion in culture supernatant", "setting": "[2]; FIG. 1", "value": "dose-dependently inhibits IL-6 secretion"}, {"measurement": "IL-6 secretion in culture supernatant", "setting": "[2]; [3]", "value": "reduced"}]}
